How the values were obtained:
[1] = system: rat collagen-induced arthritis model; conditions: cited from earlier work
rat Arthus reaction = conditions: cited from earlier work
[2] = system: naturally occurring pemphigus foliaceus (PF); conditions: dogs with newly diagnosed pemphigus foliaceus; cited from earlier work
platelet aggregation = conditions: healthy volunteers or patients with ITP; cited from earlier work
IgG anti-TPO = assay: Phase 2 CSU study: serum IgG anti-TPO ELISA; assay type: in vivo, human; conditions: for IgG anti-TPO (IU) Median Percent Change from Baseline: Baseline to Week 12
Source text: Blood samples were also collected through Week 12 to evaluate the change in baseline in various biomarkers, including sMRGPRX2, IgG anti-TPO, IgG anti-FCεRI, IgG anti-IgE, and IL-31.
Collection of biological samples for other biomarker research was also part of this study. The following samples for biomarker research were required and were to be collected from all participants in this study: • Serum and plasma samples for soluble biomarkers and cellular tests. Analytes included IgG anti-IgE, IgG anti-FcεRI, IgG anti-TPO, IgE anti-TPO, IL-31, and sMRGPRX2. • Blood samples for immune cell phenotyping, including measurement of eosinophil levels • Blood samples for BTK occupancy in peripheral blood mononuclear cells (PBMCs) at selected sites
For each patient, serum samples were to be collected on each of four visits (Visits 2, 4, 6, and end of study/follow up).
Serum analyte testing was to be performed using the following commercial assays: • sMRGPRX2 ELISA (Cat. No. #MBS933336; MyBioSource) • IL-31 HTRF assay (Cat. No. #62HIL31PEG; Cisbio/PerkinElmer) • IgG anti-TPO ELISA (Cat. No. #ORG503; Orgentec Diagnostica GmbH)
If dilutions were to be prepared, the same dilutions were to be prepared twice from each sample. These were to be measured on different plates. Each plate was to include a standard curve. Samples were to be measured twice for all biomarkers except for sMRGPRX2. Mean measurement values were to be calculated, and the concentration of the biomarker was to be calculated using GraphPad Prism 9 software (4-PL model).
The IgG anti-TPO ELISA was performed according to the manufacturer's instructions.
Assay data ranges are described below. • sMRGPRX2: 0.1 ng/mL-10 ng/mL • IgG anti-FCεRI: 0-10000 arbitrary units (AU) • IgG anti-TPO: 0-3000 international units (IU) • IgE anti-TPO: 0-500 AU • IgG anti-IgE: 0-100000 AU • IL-31: 0.1 ng/mL-20 ng/mL

## CC(C)(C=C(C#N)C(=O)N1CCC[C@@H](n2nc(-c3ccc(Oc4ccccc4)cc3F)c3c(N)ncnc32)C1)N1CCN(C2COC2)CC1 [rilzabrutinib, (R)-2-[3-[4-amino-3-(2-fluoro-4-phenoxy-phenyl)pyrazolo[3,4-d]pyrimidin-1-yl]piperidine-1-carbonyl]-4-methyl-4-[4-(oxetan-3-yl)piperazin-1-yl]pent-2-enenitrile]
[1]
  rat collagen-induced arthritis: full disease reversal
Rat Arthus reaction
  rat Arthus reaction: blockade
[2]
  cases with disease controlled without corticosteroid: 4 of 4
Platelet aggregation
  effect on platelet aggregation: does not alter
IgG anti-TPO; 400 mg TID, Week 12
  reduction from baseline for IgG anti-TPO: 46.7%
IgG anti-TPO; 400 mg BID
  IgG anti-TPO (IU) Median Percent Change from Baseline: −19.4%
IgG anti-TPO; 400 mg QPM
  IgG anti-TPO (IU) Median Percent Change from Baseline: −39.9%
IgG anti-TPO; 400 mg TID
  IgG anti-TPO (IU) Median Percent Change from Baseline: −46.7%
